Data on one substance can be found in publication PMC11267363, “Supramolecular Nanofibers Ameliorate Bleomycin‐Induced Pulmonary Fibrosis by Restoring Autophagy” (Advanced Science, 2024).

The assay concerns MRC-5 cells. The assay can be described thus: Cell migration, invasion and wound-healing assay. The format is cell-based, human. As to conditions: MRC-5 cells stimulated by TGF-β1, peptide 50 µM, 24 h transwell, 48 h wound closure, n = 3. The method, then: For wound healing, cell monolayers were scratched with pipette tip. Cells were incubated with or without 10 ng ml^−1 recombinant human TGF‐β1. Ac‐GFFY‐A2 (50 µM) or A2 (50 µM) was added to the medium 1 h behind to TGF‐β1 stimulation. Images were captured at 0 and 48 h after scratching, and the lesion area was measured with Image J software. Cell invasion assay was performed using transwell chambers (8‐µm pore size, Millipore). Chambers were pre‐coated with Matrigel (30 µg per well, BD). Cells were seeded into the chamber with MEM supplemented with 0.1% FBS, and the lower well was added MEM supplemented with 20% FBS. After incubated for 24 h, non‐invaded cells on the upside were removed with cotton swap, and invaded cells were fixed with 4% paraformaldehyde, stained with 0.5% crystal violet, and then photographed under a microscope. The crystal violet stain was eluted in alcohol and quantified at OD540 nm. […]
MRC-5 cells were seeded on a 6-well plate at a density of 6×10^4 cells per well then cultured for 12 hours to adhere the walls. […] The cells were collected and centrifuged, finally the cellular uptake was measured by flow cytometry. […]
Images were captured at 0 h and 48 h after scratching, and the lesion area was measured with Image J software. […] The crystal violet stain was eluted in alcohol and quantified at OD540 nm. […]

Turning to Ac-GFFYGGWLTRLLQTK-OH [Ac-GFFY-A2], the “rate of migration and invasion” value is “decline in the rate of migration and invasion”.
